Source: PMC7760626, “Screening of Human CYP1A2 and CYP3A4 Inhibitors from Seaweed In Silico and In Vitro” (Marine Drugs, 2020)
Values joined by “and” are separate entries in the source; they are usually repeats but may differ in a detail not shown here. Identical values can stand only once. Like-named read-outs stand apart in the source and are kept apart here.

Experiments:
[1] = test system: CYP1A2; settings: read-out: IC50 CYP1A2 enzyme activity; cited from earlier work
[2] = test system: CYP1A1; settings: read-out: IC50 CYP1A1 enzyme activity; cited from earlier work
[3] = test system: CYP3A4; settings: read-out: IC50 CYP3A4 enzyme activity; cited from earlier work
[4] = biological target: human recombinant CYP3A4 (Homo sapiens, UniProt P08684); experiment: Vivid CYP3A4 red screening kit inhibition assay
Protocol: (§1) Human CYP1A2 and CYP3A4 activities were determined using the Vivid™ CYP1A2 blue screening kit and Vivid™ CYP3A4 red screening kit according to the manufacturer’s instructions. For the CYP1A2 and CYP3A4 inhibition assay, different concentrations (3.125–200 μM) of test compounds or inhibitors were mixed with a master pre-mix comprising of CYP450 BACULOSOMES® reagent and regeneration system which contained glucose-6-phosphate and glucose-6-phosphate dehydrogenase. The mixture was incubated at room temperature for 10 min. Following incubation, each CYP enzyme-specific substrate (Vivid EOMCC for CYP1A2 and Vivid BOMR for CYP3A4) and NADP^+ were added to start the reaction. The plate was immediately transferred into the fluorescent plate reader and read in 1 min intervals for 60 min at Ex 415 nm/Em 460 nm (CYP1A2) and Ex 550 nm/Em 590 nm (CYP3A4), respectively. […] The plots were made with Graph-Pad Prism software (Graph-Pad, San Diego, CA, USA).

[5] = biological target: T1, CYP1A2 (Homo sapiens, UniProt P05177); experiment: Vivid CYP1A2 blue screening kit inhibition assay; settings: 3.125–200 μM; for effect on CYP1A2 activity (in words): in vitro
T1 sequence (P05177 1-516): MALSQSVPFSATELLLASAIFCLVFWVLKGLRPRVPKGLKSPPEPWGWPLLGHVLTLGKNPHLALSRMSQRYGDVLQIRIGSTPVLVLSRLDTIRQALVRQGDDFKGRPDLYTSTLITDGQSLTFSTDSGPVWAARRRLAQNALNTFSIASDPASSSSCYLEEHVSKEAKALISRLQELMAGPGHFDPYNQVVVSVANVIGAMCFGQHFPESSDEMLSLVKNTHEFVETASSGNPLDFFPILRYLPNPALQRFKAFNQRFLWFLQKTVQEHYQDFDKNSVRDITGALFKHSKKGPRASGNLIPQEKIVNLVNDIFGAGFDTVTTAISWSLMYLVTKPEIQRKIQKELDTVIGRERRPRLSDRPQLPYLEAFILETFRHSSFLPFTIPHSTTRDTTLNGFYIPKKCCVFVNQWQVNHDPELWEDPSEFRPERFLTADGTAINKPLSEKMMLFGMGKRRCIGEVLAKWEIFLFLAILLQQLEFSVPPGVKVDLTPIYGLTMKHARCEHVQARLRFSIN
Protocol: as §1

[6] = test system: CYP1A1; parameters: method as in PMID 31655123; settings: cited from earlier work
[7] = test system: CYP2D6; settings: cited from earlier work
[8] = test system: CYP2C19; settings: cited from earlier work
[9] = test system: CYP3A4; settings: cited from earlier work
[10] = test system: CYP2E1; settings: cited from earlier work
[11] = test system: CYP1A2; settings: cited from earlier work
[12] = CYP1A2 In Vitro IC50, CYP1A2 BACULOSOMES, substrate Vivid EOMCC, n.i. = no inhibition

human recombinant CYP3A4, sequence (P08684 whole entry): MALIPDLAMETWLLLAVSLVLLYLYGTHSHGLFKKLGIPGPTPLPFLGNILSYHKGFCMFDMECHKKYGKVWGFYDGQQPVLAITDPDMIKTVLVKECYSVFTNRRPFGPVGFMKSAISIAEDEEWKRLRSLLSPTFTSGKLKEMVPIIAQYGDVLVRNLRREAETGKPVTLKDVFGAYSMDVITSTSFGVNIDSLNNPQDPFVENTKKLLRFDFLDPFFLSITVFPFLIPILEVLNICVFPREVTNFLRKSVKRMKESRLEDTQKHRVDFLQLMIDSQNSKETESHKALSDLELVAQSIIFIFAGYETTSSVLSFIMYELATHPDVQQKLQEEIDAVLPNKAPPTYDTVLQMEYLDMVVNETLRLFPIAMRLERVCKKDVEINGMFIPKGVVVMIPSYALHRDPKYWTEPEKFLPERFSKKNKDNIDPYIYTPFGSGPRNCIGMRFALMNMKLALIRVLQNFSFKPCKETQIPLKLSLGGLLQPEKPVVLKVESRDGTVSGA

## CC(=O)O[C@H]1CC(C)(C)C(=C=C/C(C)=C/C=C/C(C)=C/C=C/C=C(C)/C=C/C=C(\C)C(=O)C[C@@]23O[C@]2(C)C[C@@H](O)CC3(C)C)[C@](C)(O)C1 [Fucoxanthin, fucoxanthin]
[1]
  IC50: 49 µM
[2]
  IC50: 12.5 µM
[3]
  IC50: 11 µM
[4]; CYP3A4 In Vitro IC50, CYP3A4 BACULOSOMES, substrate Vivid BOMR, 3.125–200 μM, n.i. = no inhibition
  IC50: 24.4 µM
[5]; [12]
  IC50: 30.3 µM
[5]; human, recombinant human CYP1A2 (CYP450 BACULOSOMES reagent), probe Vivid EOMCC, CYP1A2 In Vitro IC50, CYP1A2 BACULOSOMES, substrate Vivid EOMCC, n.i. = no inhibition
  IC50 at 60 min: 30.2 µM

## COc1ccc([C@@H]2CC(=O)c3c(O)cc(O[C@@H]4O[C@H](CO[C@@H]5O[C@@H](C)[C@H](O)[C@@H](O)[C@H]5O)[C@@H](O)[C@H](O)[C@H]4O)cc3O2)cc1O [Hesperidin, hesperidin]
[4]; in vitro, at high concentrations
  effect on CYP3A4 activity (in words): slightly inhibited
[5]
  effect on CYP1A2 activity (in words): did not show any significant effect
[5]; listed as HSP
  effect on CYP1A2 activity (in words): no significant inhibitory effect

## O=c1c(O)c(-c2ccc(O)cc2O)oc2cc(O)cc(O)c12 [Morin, morin hydrate]
[6]
  IC50: 126 µM
[5]; [12]
  IC50: 41.8 µM and 41.9 µM

## O=c1c(O)c(-c2ccc(O)c(O)c2)oc2cc(O)cc(O)c12 [Quercetin, quercetin]
[7]
  inhibitory effect against CYP2D6 (in words): strong inhibitory effect
[8]
  inhibitory effect against CYP2C19 (in words): moderate effect
[9]
  inhibitory effect against CYP3A4 (in words): moderate effect
[10]
  effect on CYP2E1 (in words): did not show any significant effect
[11]
  effect on CYP1A2 (in words): did not show any significant effect
